From PMC2813745, “A novel inhibitor of the PI3K/Akt pathway based on the structure of inositol 1,3,4,5,6-pentakisphosphate” (British Journal of Cancer, 2010)

How the values were obtained:
CAMK1 (CaMK1) = CAMK1 (CaMK1) (Homo sapiens, UniProt Q14012); test: SelectScreen kinase profiling: CAMK1; assay type: biochemical; settings: 10 µM compound; [ATP] 100 µM
Description: (§1) Effect of the indicated compounds on the activity of various kinases was assessed by SelectScreen Kinase Profiling Service (Invitrogen-Life Technologies, Paisley, UK). Assays were performed using 1 μM of the tested compounds and ATP concentration as indicated in the corresponding tables. In the case of […] a screen using 10 μM of the compound was also carried out, as indicated in the corresponding table.

PDK1 = target: T1, PDK1 (Homo sapiens, UniProt O15530); test: SelectScreen kinase profiling: PDK1; assay type: biochemical; settings: for IC50: 10-point titration, [ATP] 100 μM
T1 sequence (O15530 1-556): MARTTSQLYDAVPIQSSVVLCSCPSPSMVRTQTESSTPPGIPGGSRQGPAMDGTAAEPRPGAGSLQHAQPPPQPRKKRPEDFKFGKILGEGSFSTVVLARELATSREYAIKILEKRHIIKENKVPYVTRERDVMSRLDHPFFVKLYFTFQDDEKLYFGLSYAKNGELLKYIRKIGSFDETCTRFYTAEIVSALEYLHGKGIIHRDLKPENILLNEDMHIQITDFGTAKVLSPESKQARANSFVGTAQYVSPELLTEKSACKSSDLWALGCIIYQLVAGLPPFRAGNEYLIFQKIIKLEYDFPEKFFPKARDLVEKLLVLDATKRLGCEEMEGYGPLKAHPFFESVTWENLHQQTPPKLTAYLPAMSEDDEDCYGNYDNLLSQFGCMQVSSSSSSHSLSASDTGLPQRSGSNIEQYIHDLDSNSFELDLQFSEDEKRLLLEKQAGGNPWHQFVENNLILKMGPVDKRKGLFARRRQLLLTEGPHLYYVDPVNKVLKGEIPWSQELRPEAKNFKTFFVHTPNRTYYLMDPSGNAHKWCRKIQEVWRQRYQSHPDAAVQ
Description: as §1

MAPK3 (ERK1) = MAPK3 (ERK1) (Homo sapiens, UniProt P27361); test: SelectScreen kinase profiling: MAPK3; assay type: biochemical; settings: [ATP] 50 µM
MAPK3 (ERK1), sequence (P27361 whole entry): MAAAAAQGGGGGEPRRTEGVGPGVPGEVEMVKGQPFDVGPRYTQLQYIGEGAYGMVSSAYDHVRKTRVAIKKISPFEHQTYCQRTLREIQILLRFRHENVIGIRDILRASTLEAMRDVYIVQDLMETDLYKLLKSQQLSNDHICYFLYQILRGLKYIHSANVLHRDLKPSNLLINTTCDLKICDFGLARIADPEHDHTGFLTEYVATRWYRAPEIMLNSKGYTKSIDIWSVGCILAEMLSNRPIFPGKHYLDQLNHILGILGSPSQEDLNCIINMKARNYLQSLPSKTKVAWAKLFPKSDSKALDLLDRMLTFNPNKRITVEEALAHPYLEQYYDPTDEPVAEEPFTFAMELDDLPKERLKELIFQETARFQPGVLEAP
Description: as §1

MDA-MB-468 = test: Cell survival by cell counting, MDA-MB-468; assay type: cell-based, human; settings: MDA-MB-468, 72 h
Description: (§2) Cells seeded in a 24-well plate were treated with the indicated compounds in serum free DMEM or DMEM containing 0.5% FBS (PC3). After 72 h, the number of surviving cells was assessed by manual cell counting or by using the cell counter CDA-500 (Sysmex, Milton Keynes, UK). Alternatively, after 48 h, the number of apoptotic cells was assessed by acridine orange/ethidium bromide assay as described ([Piccolo et al, 2004]; [Maffucci et al, 2005]). SRB test was carried out in SKOV-3 and PC3 seeded in 96-well plate (3800 cells per well or 5800 cells per well, respectively) after 72 h of treatment as described ([Cappella et al, 2001]).
(§3) The number of surviving cells was assessed by cell counting. Data are mean±s.e. of n=3 (A), n=6 (B), n=3 (C) and n=4 (D) independent experiments carried out in duplicate. ^*=P<0.01; ^**=P<0.05. […] After 72 h the number of surviving cells was assessed by SRB assay. Data are mean±s.e. of n=2 independent experiments.
(§4) Data are mean±s.e. of n=4 independent experiments carried out in duplicate. […] Data are mean±s.e. of n=5 independent experiments carried out in duplicate. […] In all cases (A–D), cells were treated for 72 h and the number of surviving cells was assessed by cell counting. […] In all cases (E, F), cells were treated for 72 h and the number of surviving cells was assessed by SRB assay and data are mean±s.e. of two experiments carried out in quadruplicate.

SKOV-3 [1] = test: Cell survival by cell counting, SKOV-3; assay type: cell-based, human; settings: SKOV-3, 72 h
Description: as §2
(§5) The number of surviving cells was assessed by cell counting. Data are mean±s.e. of n=4 (A) and n=2 (B) independent experiments. ^**=P<0.05. […] The number of apoptotic cells was assessed by acridine orange/ethidium bromide assay. Data are mean±s.e. of three independent experiments. ^**=P<0.05.

ASPC1 = test: Cell survival by cell counting, ASPC1; assay type: cell-based, human; settings: ASPC1, 72 h
Description: as §2, §3, §4

MCF7 = test: Cell survival by cell counting, MCF7; assay type: cell-based, human; settings: MCF7, 72 h, 20 nM 4-OH Tamoxifen, 50 μM 2-O-Bn-InsP5 alone or in combination
Description: as §2
Data are mean±s.e. of n=4 independent experiments carried out in duplicate. […] Data are mean±s.e. of n=5 independent experiments carried out in duplicate. […] Data are mean±s.e. of n=6 independent experiments carried out in duplicate. […] Data are mean±s.e. of n=2 independent experiments carried out in duplicate. In all cases (A–D), cells were treated for 72 h and the number of surviving cells was assessed by cell counting. […] In all cases (E, F), cells were treated for 72 h and the number of surviving cells was assessed by SRB assay and data are mean±s.e. of two experiments carried out in quadruplicate.

[2] = test system: Akt phosphorylation in ASPC1; test: Akt activation by western blot in ASPC1; assay type: cell-based, human; settings: ASPC1, results not shown
SKOV-3 [3] = test: Acridine orange/ethidium bromide apoptosis assay, SKOV-3; assay type: cell-based, human; settings: SKOV-3, acridine orange/ethidium bromide assay
Description: as §2, §5

[4] = test system: almost 60 protein kinases; test: SelectScreen kinase profiling: all the other tested kinases of the panel; assay type: biochemical; settings: 1 μM; all tested kinases other than PDK1 and mTOR
Description: Effect of the indicated compounds on the activity of various kinases was assessed by SelectScreen Kinase Profiling Service (Invitrogen-Life Technologies, Paisley, UK). Assays were performed using 1 μM of the tested compounds and ATP concentration as indicated in the corresponding tables. In the case of InsP5 a screen using 10 μM of the compound was also carried out, as indicated in the corresponding table.
None of the other polyphosphates had any significant effect (Table 1C). […] This is consistent with the detected inhibition of Thr308 phosphorylation in 2-O-Bn-InsP5-treated SKOV-3 and PC3 cells (Figure 1B and C) and 2-O-Bn-InsP5-treated mice (Figure 4D).

BxPc-3 = test: Cell survival by cell counting, BxPc-3; assay type: cell-based, human; settings: BxPc-3, 72 h
Description: as §2, §3

SKBR3 = test: Cell survival by cell counting, SKBR3; assay type: cell-based, human; settings: SKBR3, 72 h
Description: as §2, §5

PC3 = test: Cell survival by cell counting, PC3; assay type: cell-based, human; settings: PC3, 72 h
Description: as §2, §3, §4

[5] = 1 µM compound, [ATP] 100 µM, single point

CAMK1 (CaMK1), sequence (Q14012 whole entry): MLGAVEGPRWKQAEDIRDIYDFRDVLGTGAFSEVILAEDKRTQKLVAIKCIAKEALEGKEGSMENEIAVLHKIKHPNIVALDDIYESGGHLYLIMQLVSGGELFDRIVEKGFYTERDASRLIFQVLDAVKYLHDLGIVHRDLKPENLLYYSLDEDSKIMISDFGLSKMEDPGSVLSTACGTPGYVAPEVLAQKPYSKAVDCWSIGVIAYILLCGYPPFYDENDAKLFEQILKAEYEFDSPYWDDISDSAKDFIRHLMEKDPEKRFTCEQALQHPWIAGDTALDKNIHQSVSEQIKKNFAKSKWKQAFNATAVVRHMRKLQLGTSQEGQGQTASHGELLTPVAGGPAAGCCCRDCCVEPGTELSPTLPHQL

Row | SMILES | inhibition at 10 µM (CAMK1 (CaMK1)) [%] | % Inhibition Mean (PDK1; [5]) [%] | inhibition at 1 µM (PDK1; [5]) [%] | inhibition at 10 µM (PDK1; 10 µM compound, [ATP] 100 µM) [%] | IC50 (PDK1) [nM] | inhibition at 10 µM (MAPK3 (ERK1); 10 µM compound) [%] | number of surviving cells (MDA-MB-468) | number of surviving cells (SKOV-3 [1]) | number of surviving cells (ASPC1) | number of surviving cells (MCF7) | Akt phosphorylation [2] | percentage of apoptotic cells (SKOV-3 [3]) | percentage of inhibition of all the other tested kinases [4] [%] | inhibition at 1 µM (MAPK3 (ERK1); 1 µM compound) [%] | number of surviving cells (BxPc-3) | number of surviving cells (SKBR3) | number of surviving cells (PC3)
1 | O=P(O)(O)OC1C(O)C(OP(=O)(O)O)C(OP(=O)(O)O)C(OP(=O)(O)O)C1OP(=O)(O)O (stereo not shown) [InsP5, inositol 1,3,4,5,6-pentakisphosphate] | -46 | 68 | 71 | 70 | 613 | 3 | – | – | – | – | – | – | – | – | – | – | –
2 | O=P(O)(O)OC1C(OCc2ccccc2)C(OP(=O)(O)O)C(OP(=O)(O)O)C(OP(=O)(O)O)C1OP(=O)(O)O (stereo not shown) [2-O-Bn-InsP5, 2-O-benzyl-myo-inositol 1,3,4,5,6-pentakisphosphate] | – | – | 79 | – | 26.5 | – | stronger activity of 2-O-Bn-InsP5 compared with InsP5 | strongly reduced the number of surviving | more active than InsP5 at almost all concentrations tested | little effect | able to block Akt phosphorylation | percentage of apoptotic cells was higher in 2-O-Bn-InsP5-treated compared with InsP5-treated | < 40 | 19 | more potent than InsP5 at a concentration of 50 μM | strongly reduced the number of surviving | stronger activity of 2-O-Bn-InsP5 compared with InsP5
